The values that follow come from BindingDB's records for doi:10.1016/j.chembiol.2015.08.013 (Aston University, 2015).

pIC50: −log10 of the molar value.

Common to all, as to assay: TG Activity Assays
The target in assay [1] is T1, Protein-glutamine gamma-glutamyltransferase 2 (Homo sapiens, UniProt P21980).
T1 sequence (P21980 whole entry): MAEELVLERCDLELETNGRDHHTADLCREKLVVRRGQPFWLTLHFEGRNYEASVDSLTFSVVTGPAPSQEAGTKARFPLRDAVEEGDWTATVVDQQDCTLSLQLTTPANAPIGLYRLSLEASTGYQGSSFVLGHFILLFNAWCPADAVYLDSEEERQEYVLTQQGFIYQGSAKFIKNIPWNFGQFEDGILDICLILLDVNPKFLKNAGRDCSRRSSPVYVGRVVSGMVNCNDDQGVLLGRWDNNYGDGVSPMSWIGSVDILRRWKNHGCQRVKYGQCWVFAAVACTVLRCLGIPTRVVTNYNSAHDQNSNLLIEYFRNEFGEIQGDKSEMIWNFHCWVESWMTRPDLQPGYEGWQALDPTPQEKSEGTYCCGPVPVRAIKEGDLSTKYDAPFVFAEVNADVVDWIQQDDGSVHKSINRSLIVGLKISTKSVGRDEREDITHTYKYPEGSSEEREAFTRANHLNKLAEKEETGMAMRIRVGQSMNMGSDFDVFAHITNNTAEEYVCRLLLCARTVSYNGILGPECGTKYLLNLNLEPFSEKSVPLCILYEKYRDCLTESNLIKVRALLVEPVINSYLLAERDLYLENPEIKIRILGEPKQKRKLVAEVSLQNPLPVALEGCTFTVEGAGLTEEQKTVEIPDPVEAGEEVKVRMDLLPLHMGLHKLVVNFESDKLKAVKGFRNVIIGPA
The method, then: (§1) The incorporated biotinylated peptides were measured using horseradish peroxidase-conjugated streptavidin and then measured using o-phenylenediamine dihydrochloride substrates. The absorbance was measured at 490 nm using a microplat

The target in assay [2] is T2, Protein-glutamine gamma-glutamyltransferase K (Homo sapiens, UniProt P22735).
T2 sequence (P22735 whole entry): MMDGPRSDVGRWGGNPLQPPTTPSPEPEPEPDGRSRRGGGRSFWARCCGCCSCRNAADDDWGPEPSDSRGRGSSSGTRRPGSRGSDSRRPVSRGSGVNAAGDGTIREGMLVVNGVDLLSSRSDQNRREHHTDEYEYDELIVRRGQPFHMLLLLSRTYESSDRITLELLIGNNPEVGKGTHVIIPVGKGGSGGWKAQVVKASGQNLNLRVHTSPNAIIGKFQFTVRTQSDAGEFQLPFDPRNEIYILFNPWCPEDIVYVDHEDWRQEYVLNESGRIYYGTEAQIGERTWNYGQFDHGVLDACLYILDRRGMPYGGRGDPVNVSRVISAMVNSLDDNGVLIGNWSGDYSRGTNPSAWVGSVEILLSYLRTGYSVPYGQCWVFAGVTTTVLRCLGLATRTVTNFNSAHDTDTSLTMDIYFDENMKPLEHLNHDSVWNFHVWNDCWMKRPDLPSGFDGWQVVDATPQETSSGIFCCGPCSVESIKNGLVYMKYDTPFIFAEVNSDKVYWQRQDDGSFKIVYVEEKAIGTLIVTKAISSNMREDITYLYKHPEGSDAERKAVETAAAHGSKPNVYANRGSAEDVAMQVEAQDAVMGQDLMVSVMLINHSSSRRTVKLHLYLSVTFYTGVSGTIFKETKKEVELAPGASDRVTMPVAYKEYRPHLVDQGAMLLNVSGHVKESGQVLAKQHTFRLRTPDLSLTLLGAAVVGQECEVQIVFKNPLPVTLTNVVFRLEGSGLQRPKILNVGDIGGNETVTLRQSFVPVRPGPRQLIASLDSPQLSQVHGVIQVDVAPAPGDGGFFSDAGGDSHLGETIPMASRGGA
The procedure: as §1

For assay [3], the target named is T3, Protein-glutamine gamma-glutamyltransferase E (Homo sapiens, UniProt Q08188).
T3 sequence (Q08188 whole entry): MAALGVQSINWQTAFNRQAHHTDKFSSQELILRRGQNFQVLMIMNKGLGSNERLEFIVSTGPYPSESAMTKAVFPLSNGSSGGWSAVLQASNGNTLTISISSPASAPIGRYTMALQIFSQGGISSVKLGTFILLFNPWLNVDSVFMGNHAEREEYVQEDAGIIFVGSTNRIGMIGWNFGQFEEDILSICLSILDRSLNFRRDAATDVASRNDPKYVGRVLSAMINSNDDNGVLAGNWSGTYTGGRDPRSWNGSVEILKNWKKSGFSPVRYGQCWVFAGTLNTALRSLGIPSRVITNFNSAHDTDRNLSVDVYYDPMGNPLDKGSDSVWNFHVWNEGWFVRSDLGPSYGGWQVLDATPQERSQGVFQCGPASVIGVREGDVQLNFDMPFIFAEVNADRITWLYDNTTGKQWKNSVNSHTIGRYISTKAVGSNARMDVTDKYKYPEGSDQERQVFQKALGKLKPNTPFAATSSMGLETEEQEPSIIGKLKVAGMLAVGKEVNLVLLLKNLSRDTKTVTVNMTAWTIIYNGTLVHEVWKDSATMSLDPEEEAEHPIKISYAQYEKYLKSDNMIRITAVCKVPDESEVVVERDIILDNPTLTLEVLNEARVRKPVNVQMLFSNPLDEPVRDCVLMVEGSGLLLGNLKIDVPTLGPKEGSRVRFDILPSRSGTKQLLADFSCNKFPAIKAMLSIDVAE
The method, then:
as §1

For the compound `COC(=O)c1ccc(COC(=O)N2CCN(C(=O)CNC(=O)C[S+](C)C)CC2)cc1` [[2-[[2-[4-[(4-Methoxycarbonylphenyl)methoxycarbonyl]piperazin-1-yl]-2-oxo-ethyl]-amino]-2-oxo-ethyl]-dimethyl-sulfonium bromide (1b)], the figures for the pIC50 in assay [1], in assay [2] and in assay [3] were 5.48, under 4.00 and under 4.00, respectively.
As for `C=CC(=O)NCC(=O)N1CCN(S(=O)(=O)c2cccc3c(N(C)C)cccc23)CC1` [N-[2-[4-[[5-(dimethylamino)-1-naphthyl]sulfonyl]piperazin-1-yl]-2-oxo-ethyl]prop-2-enamide (3h)], the pIC50 (in general, the negative decadic logarithm of the IC50, by convention in mol/L) in assay [2] was 4.60; in assay [3] it was 4.70.
In the case of `C=CC(=O)NCC(=O)N1CCN(C(=O)OCc2ccc3ccccc3c2)CC1` [2-Naphthylmethyl 4-[2-(prop-2-enoylamino)acetyl]piperazine-1-carboxylate (3c)], the pIC50 in assay [1] was 6.36; in assay [2], under 4.00; in assay [3], under 4.00.
Compound `COC(=O)c1ccc2cc(COC(=O)N3CCN(C(=O)CNC(=O)CCl)CC3)ccc2c1` [(6-Methoxycarbonyl-2-naphthyl)methyl 4-[2-[(2-chloroacetyl)amino]acetyl]piperazine-1-carboxylate (6n)] gave a pIC50 in assay [1] of 8.18.
On to `O=C(CBr)NCC(=O)N1CCN(C(=O)OCCC23CC4CC(CC(C4)C2)C3)CC1` [2-(1-Adamantyl)ethyl 4-[2-[(2-bromoacetyl)amino]acetyl]piperazine-1-carboxylate (6g)], for which the figures for the pIC50 in assay [2] and in assay [3] were 5.52 and 4.30, respectively.
Take `C=CC(=O)NCC(=O)N1CCN(C(=O)OCCC23CC4CC(CC(C4)C2)C3)CC1` [2-(1-Adamantyl)ethyl 4-[2-(prop-2-enoylamino)acetyl]piperazine-1-carboxylate (3g)]: the negative logarithm of the IC50 (pIC50) is 6.05 in assay [1], under 4.00 in assay [2] and under 4.00 in assay [3].
For `C[S+](C)CC(=O)NCC(=O)N1CCN(C(=O)OCc2ccc3ccccc3c2)CC1` [Dimethyl-[2-[[2-[4-(2-naphthylmethoxycarbonyl)piperazin-1-yl]-2-oxo-ethyl]amino]-2-oxo-ethyl]sulfonium bromide (1c)], the negative logarithm of the IC50 (pIC50) in assay [1] was 5.97; in assay [2] it was under 4.00; in assay [3], under 4.00.
Compound `O=C(CBr)NCC(=O)N1CCN(C(=O)OCc2ccc3ccccc3c2)CC1` [2-Naphthylmethyl 4-[2-[(2-bromoacetyl)amino]acetyl]piperazine-1-carboxylate (6c)] had a pIC50 in assay [1] of 7.54.
The same measure, in the same setting: with `Cc1c(C)[n+](C)c(SCC(=O)NCC(=O)N2CCN(C(=O)OCc3ccccc3)CC2)n1C` [Benzyl 4-[2-[[2-(1,3,4,5-tetramethylimidazol-1-ium-2-yl)sulfanylacetyl]amino]-acetyl]-piperazine-1-carboxylate bromide (1s)] the figure was 4.00; with `C[S+](C)CC(=O)NCC(=O)N1CCN(C(=O)OCCC23CC4CC(CC(C4)C2)C3)CC1` [[2-[[2-[4-[2-(1-Adamantyl)ethoxycarbonyl]piperazin-1-yl]-2-oxo-ethyl]amino]-2-oxo-ethyl]-dimethyl-sulfonium bromide (1g)], 5.50; with `C=CS(=O)(=O)NCC(=O)N1CCN(C(=O)OCc2ccccc2)CC1` [Benzyl 4-[2-(vinylsulfonylamino)acetyl]piperazine-1-carboxylate (2a)], 5.76.
With `C[S+](C)CC(=O)NCC(=O)N1CCN(C(=O)OC(C)(C)C)CC1` [[2-[[2-(4-tert-Butoxycarbonylpiperazin-1-yl)-2-oxo-ethyl]amino]-2-oxo-ethyl]-dimethylsulfonium bromide (1m)], the pIC50 in assay [1] was 6.56; in assay [2], under 4.00; in assay [3], under 4.00.
For `O=C(CBr)NCC(=O)N1CCN(C(=O)C23CC4CC(CC(C4)C2)C3)CC1` [N-[2-[4-(adamantane-1-carbonyl)piperazin-1-yl]-2-oxo-ethyl]-2-bromo-acetamide (6e)], the pIC50 in assay [1] was 8.41; in assay [2], 6.00; in assay [3] it was 4.15.
In the case of `C=CC(=O)NCC(=O)N1CCN(C(=O)OCc2ccc(C(=O)OC)cc2)CC1` [(4-Methoxycarbonylphenyl)methyl 4-[2-(prop-2-enoylamino)acetyl]piperazine-1-carboxylate (3b)], in assay [1], the negative-log IC50 (pIC50) is 5.20.
Same read-out and setting: as for `COC(=O)c1ccc(COC(=O)N2CCN(C(=O)CNC(=O)CBr)CC2)cc1` [(4-Methoxycarbonylphenyl)methyl 4-[2-[(2-bromoacetyl)amino]acetyl]piperazine-1-carboxylate (6b)], the figure is 8.68; as for `O=C(CCl)NCC(=O)N1CCN(C(=O)C23CC4CC(CC(C4)C2)C3)CC1` [N-[2-[4-(adamantane-1-carbonyl)piperazin-1-yl]-2-oxo-ethyl]-2-chloro-acetamide (6o)], 8.06; as for `C=CC(=O)NCC(=O)N1CCN(C(=O)OCc2ccccc2)CC1` [Benzyl 4-[2-(prop-2-enoylamino)acetyl]piperazine-1-carboxylate (3a)], 5.23.
On the same count and under the same terms, as for `O=C(CBr)NCC(=O)N1CCN(C(=O)OCC23CC4CC(CC(C4)C2)C3)CC1` [1-Adamantylmethyl 4-[2-[(2-bromoacetyl)amino]acetyl]piperazine-1-carboxylate (6f)], the figure is 8.20.
For `COC(=O)c1ccc2cc(COC(=O)N3CCN(C(=O)CNC(=O)CBr)CC3)ccc2c1` [(6-Methoxycarbonyl-2-naphthyl)methyl 4-[2-[(2-bromoacetyl)amino]acetyl]piperazine-1-carboxylate (6d)], the pIC50 was 7.82 in assay [1], 5.30 in assay [2] and 4.19 in assay [3].
Taken in the same sequence, the figures for `C[S+](C)CC(=O)NCC(=O)N1CCN(C(=O)OCc2ccccc2)CC1` [[2-[[2-(4-Benzyloxycarbonylpiperazin-1-yl)-2-oxo-ethyl]amino]-2-oxo-ethyl]-dimethylsulfonium bromide (1a)] were 5.85, under 4.00 and under 4.00.
Compound `C=CS(=O)(=O)NCC(=O)N1CCN(C(=O)C23CC4CC(CC(C4)C2)C3)CC1` [N-[2-[4-(adamantane-1-carbonyl)piperazin-1-yl]-2-oxo-ethyl]ethenesulfonamide (2e)] had a negative-log IC50 (pIC50) in assay [1] of 6.06.
